Values of other authors in Sander's compilation of Henry's law constants (doi:10.1016/s0045-6535(00)00505-1).

assay: Henry solubility constant Hcp at 298.15 K (mol/(m3 Pa)); details: reference: Staudinger and Roberts (2001); cited value

Compound	Henry solubility constant Hcp
ClCC(Cl)(Cl)Cl [1,1,1,2-tetrachloroethane]	0.024
CC(Cl)(Cl)Cl [1,1,1-trichloroethane]	0.00059
ClCC(Cl)Cl [1,1,2-trichloroethane]	0.011
C=C(Cl)Cl [1,1-dichloroethene]	0.00034
ClCC(Cl)CCl [1,2,3-trichloropropane]	0.036
CC(Cl)CCl (centres undefined) [1,2-dichloropropane]	0.0034
Cc1ccccc1C [1,2-dimethylbenzene]	0.002
Cc1cccc(C)c1 [1,3-dimethylbenzene]	0.0014
Cc1ccc(C)cc1 [1,4-dimethylbenzene]	0.0013
CCCCO[N+](=O)[O-] [1-butyl nitrate]	0.0088
CC(=O)c1ccccc1 [1-phenylethanone]	1.1
CC(=O)C(=O)O [2-oxopropanoic acid]	3000
CCCC(C)O[N+](=O)[O-] (centres undefined) [2-pentyl nitrate]	0.0037
CC(C)c1ccccc1 [(2-propyl)-benzene]	0.0012
O=Cc1ccccc1 [benzaldehyde]	0.38
c1ccccc1 [benzene]	0.0017
ClC(Cl)Br [bromodichloromethane]	0.004
CBr [bromomethane]	0.0017
Clc1ccccc1 [chlorobenzene]	0.0027
CCCl [chloroethane]	0.00084

Compound	Henry solubility constant Hcp
C=CCl [chloroethene]	0.00039
ClC(Br)Br [dibromochloromethane]	0.0086
FC(F)(Cl)Cl [dichlorodifluoromethane]	3.1e-05
ClCCl [dichloromethane]	0.0036
CSC [dimethyl sulfide]	0.0053
CC#N [ethanenitrile]	0.51
CC(=O)OO [ethanoic peroxyacid]	7.3
CCc1ccccc1 [ethylbenzene]	0.0013
OCOO [hydroxymethyl hydroperoxide]	16000
CI [iodomethane]	0.002
CS [methanethiol]	0.0028
COO [methyl hydroperoxide]	3.1
Cc1ccccc1 [methylbenzene]	0.0015
CCCCC(=O)O [pentanoic acid]	23
CC(C)=O [propanone]	0.28
ClC(Cl)=C(Cl)Cl [tetrachloroethene]	0.00059
ClC(Cl)(Cl)Cl [tetrachloromethane]	0.00034
BrC(Br)Br [tribromomethane]	0.017
ClC=C(Cl)Cl [trichloroethene]	0.001
